Assay results: patent US12528837B2, “Aryl substituted polymyxin derivatives” (priority 2018, dated 2026)

Legend:
[1] = test system: E. coli, K. pneumoniae, P. aeruginosa, A. baumannii strains; experiment: Synergy with rifampicin across the MIC panel; assay type: cell-based; conditions: also against strains with reduced susceptibility to polymyxins
Protocol: (§1) MIC values (μg/mL) were determined by broth microdilution under CLSI conditions.

K. pneumoniae ATCC 43816 = experiment: Neutropenic murine thigh model; assay type: in vivo; conditions: CD-1 mice thigh, counts at 16 h, PMB in parentheses
Protocol: After rendering neutropenic (cyclophosphamide 150 mg/kg d-4, 100 mg/kg d-1), CD-1 mice (n=5) were inoculated in each thigh with approx. 10^5 cfu of K. pneumoniae ATCC43816. Mice were dosed IV with appropriate doses of PMB sulphate or test compound (equivalent weight free base) at 2, 6 and 10 h post-infection. At 16 h post-infection mice were euthanised and thighs prepared for colony counts.
(§2) In each case the decrease observed with PMB in the same experiment is shown in parentheses: […]

[2] = Renal toxicity in Cynomolgus monkey, iv infusion 7 days; assay type: in vivo
Protocol: In a separate experiment male monkeys (n=3) were dosed with PMB for the same period at 4 mg/kg/dose. In both experiments control animals were dosed 3 times per day with saline.
At the end of the 7 day period blood was sampled and the serum levels of blood urea nitrogen and creatinine determined as indicators of renal damage.
Kidneys were harvested at the end of the 7 day dosing period and examined microscopically.

[3] = test system: P. aeruginosa IHMA 644636; assay type: cell-based; conditions: alone
Protocol: as §1

E. coli CDF-1 (MCR-1) = assay type: cell-based; conditions: MCR-1; alone
Protocol: as §1

[4] = test system: A. baumannii NCTC 13301 (OXA-23); assay type: cell-based; conditions: OXA-23; alone
Protocol: as §1

P. aeruginosa ATCC 27853 [5] = assay type: cell-based; conditions: alone
Protocol: as §1

E. coli IHMA 940398 = assay type: cell-based; conditions: alone
Protocol: as §1

[6] = Kidney drug level after subcutaneous dose in mouse; assay type: in vivo; conditions: mouse, in vivo, sc, 17.2 mg/kg
Outline: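 Mice were euthanised four hours after subcutaneous dosing. Both kidneys were trimmed, weighed, snap-frozen, then homogenised with zirconium oxide beads. After centrifugation (13,000 rpm, 6 °C, 10 min), supernatants were analysed by LC-MS-MS.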

[7] = Renal toxicity of Example 24 vs PMB after four doses in mouse; assay type: in vivo, mouse; conditions: for Urine β-2 microglobulin: CD-1 mice, urine 24 h, normalized to urinary creatinine, mean
Protocol: Immediately after the fourth dose mice were transferred to metabolic cages and urine collected for 24 h. for determination of urinary biomarkers. After urine collection mice were sacrificed for renal histopathology.
The urine biomarkers were normalized to urinary creatinine.

HK-2 cells = experiment: In vitro renal cell toxicity assay (HK-2); assay type: cell-based
Outline: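 HK-2 cells seeded 7,500/well, adhered overnight, then exposed to compound for 24 h at 37° C, 5% CO2, with 5% water and 0.5% DMSO. Background-subtracted, vehicle-normalised dose-response fitted with bottom fixed at zero; IC50 reported relative to PMB in the same run, median where repeated.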

[8] = Renal toxicity in mice, separate experiment Example 17 vs PMB; assay type: in vivo, mouse; conditions: sc 25 mg free base/kg, four doses at 8 hr intervals
Protocol: (§3) After the fourth dose animals were transferred into individual metabolic cages and urine collected for 24 hours for determination of urinary biomarkers. After collecting urine mice were euthanised and the kidneys harvested for histopathology.
In a separate experiment Example 17 was compared with PMB.

E. coli ATCC 25922 = experiment: MIC alone and with rifampicin, broth microdilution CLSI; assay type: cell-based; conditions: alone
Protocol: as §1

K. pneumoniae ATCC 13882 = experiment: as above; assay type: cell-based; conditions: alone
Protocol: as §1

[9] = Renal toxicity in mice, 25 mg/kg sc four doses at 8 hr intervals, biomarkers and histopathology; assay type: in vivo, mouse; conditions: mice (n=6), sc 25 mg free base/kg
Protocol: as §3

A. baumannii NCTC13301 = experiment: Neutropenic murine lung model; assay type: in vivo
Protocol: After rendering neutropenic (cyclophosphamide 200 mg/kg d-4, 150 mg/kg d-1), CD-1 mice (n=8) were inoculated intranasally with approx. 10^7 cfu per lung of A. baumannii NCTC13301. Mice were dosed SC with PMB sulphate (20 mg/kg) or appropriate doses of test compound (equivalent weight free base) at 2, 6 and 10 h post-infection. At 16 h post-infection mice were euthanised and lungs prepared for colony counts.
as §2

P. aeruginosa ATCC 27853 [10] = experiment: Neutropenic murine lung model; assay type: in vivo; conditions: CD-1 mice lung, counts at 16 h, PMB in parentheses
Protocol: After rendering neutropenic (cyclophosphamide 200 mg/kg d-4, 150 mg/kg d-1). CD-1 mice (n=8) were inoculated intranasally with 10^4-10^5 cfu per lung of P. aeruginosa ATCC27853. Mice were dosed SC with appropriate doses of PMB sulphate or test compound (equivalent weight free base) at 2, 6 and 10 h post-infection. At 16 h post-infection mice were euthanised and lungs prepared for colony counts.
as §2

[11] = cynomolgus monkey, in vivo, 4 mg/kg

Polymyxin B [reference compound]
Synergy with rifampicin (in words) [1]: strong synergy with rifampicin
Log drop in cfu Compared to Vehicle Control (K. pneumoniae ATCC 43816; IV 0.25 mg/kg at 2, 6, 10 h): 0.2 (0.2)
Log drop in cfu Compared to Vehicle Control (K. pneumoniae ATCC 43816; IV 1 mg/kg at 2, 6, 10 h): 5.2
Log drop in cfu Compared to Vehicle Control (K. pneumoniae ATCC 43816; IV 2 mg/kg at 2, 6, 10 h): 4.0
Log drop in cfu Compared to Vehicle Control (K. pneumoniae ATCC 43816; IV 4 mg/kg at 2, 6, 10 h): 5.6
Log drop in cfu Compared to Vehicle Control (K. pneumoniae ATCC 43816; IV […] at 2, 6, 10 h): 0.2
Kidney microscopy: tubular degeneration ([2]; Cynomolgus monkey (n=3), 4 mg/kg/dose, 3 times per day, 7 days): 2 showed mild tubular degeneration and 1 minimal
AUC0-8 hr, one dosing cycle on day 7 [2, 11]: 117 µg·h/mL
BUN elevation compared to control animals [2, 11]: 76%
MIC P. aeruginosa IHMA 644636 [3]: 32 µg/mL
MIC E. coli CDF-1 (E. coli CDF-1 (MCR-1)): 4 µg/mL
MIC A. baumannii NCTC 13301 [4]: 0.25 µg/mL
MIC P. aeruginosa ATCC 27853 (P. aeruginosa ATCC 27853 [5]): 0.5 µg/mL
MIC E. coli IHMA 940398 (E. coli IHMA 940398): 16 µg/mL
Drug Level in Kidney 4 h [6]: 128 µg/g kidney
Drug Level in Kidney 16 h [6]: 18 µg/g kidney
Tubular Degeneration/necrosis (histopathology, animals affected) ([7]; CD-1 mice (n=5), sc 25 mg/kg four times at 8 h intervals): 5/5 (2 min/
Urine β-2 microglobulin ([7]; sc 25 mg/kg four times at 8 h intervals): 43.83
Urine β-2 microglobulin ([7]; sc […] four times at 8 h intervals): 3.43
Basophilic Tubules (cortex) (animals affected) ([7]; mouse, in vivo, sc, 25 mg/kg): 5/5 (1 min/
Mitotic Figures increased (animals affected) ([7]; mouse, in vivo, sc, 25 mg/kg): 3/5
Urine Albumin ([7]; mouse, in vivo, sc, 25 mg/kg): 7.73
Urine Cystatin C ([7]; mouse, in vivo, sc, 25 mg/kg): 44.51
Urine Kim-1 ([7]; mouse, in vivo, sc, 25 mg/kg): 3,446.42
Urine NGAL ([7]; mouse, in vivo, sc, 25 mg/kg): 4.37
Cytotoxicity (measured IC50 relative to that recorded for Polymyxin B) (HK-2 cells): 1.0
Basophilic tubules (histopathology) ([8]; animals per grade): 4 minimal/1 mild
Tubular degeneration/necrosis (histopathology) ([8]; animals per grade): 4 normal/1 minimal
Albumin, elevation compared with vehicle control ([8]; urine): 29×
Cystatin C, elevation compared with vehicle control ([8]; urine): 2×
KIM-1, elevation compared with vehicle control ([8]; urine): 771×
MIC E. coli ATCC 25922 (E. coli ATCC 25922): 0.25 µg/mL
MIC K. pneumoniae ATCC 13882 (K. pneumoniae ATCC 13882): 0.25 µg/mL
Kidney histopathology: signs of degeneration or regeneration [9]: all 6 animals treated with PMB showed minimal tubular regeneration
Log drop in cfu Compared to Vehicle Control (A. baumannii NCTC13301; CD-1 mice lung, SC 20 mg/kg at 2, 6, 10 h, counts at 16 h, PMB (20 mg/kg) in parentheses): 0
Efficacy in the model (in words) (A. baumannii NCTC13301; neutropenic murine lung model, A. baumannii NCTC13301, 20 mg/kg SC (PMB: maximum tolerated dose)): not efficacious
Log drop in cfu Compared to Vehicle Control (P. aeruginosa ATCC 27853 [10]; SC 5 mg/kg at 2, 6, 10 h): 0 (0)
Log drop in cfu Compared to Vehicle Control (P. aeruginosa ATCC 27853 [10]; SC 7.5 mg/kg at 2, 6, 10 h): 1.0
Log drop in cfu Compared to Vehicle Control (P. aeruginosa ATCC 27853 [10]; SC 10 mg/kg at 2, 6, 10 h): 0.7
